7 compounds from US5436343A, “Alkenecarboxylic acid compounds” (Adir et Compagnie, priority 1992, dated 1995) can be followed below.

One may read the IC50 as the concentration that gives 50% inhibition. One may read the Kb as the affinity of an antagonist, worked out from how it opposes an agonist. A high value points to lower antagonist affinity.

Counter-ions that a name gives are not always drawn.

One assay relates to platelets (aggregation induced by U46619). Nature of the assay: Platelet aggregation in man (U46619-induced, PRP). The assay is classed as cell-based. The settings on record: human PRP, procedure of Example 22 (U46619 1.2 μM), read-out: IC50 (50% inhibition of platelet aggregation induced by U46619). As to the method:
Platelet aggregation is carried out at 37° C. in siliconed glass tubes using an aggregometer. The PRP and the PL are stirred at 1000 rpm (revolutions per minute). In order to study the activity of thromboxane antagonists, the PRP is incubated for 1 min at 37° C., and the antagonist is then added for a period of 3 min before addition of the agonist U46619 (1.2 μM). The final volume in the measuring cell is then 250 μl. The intensity of platelet aggregation is established by taking the maximum amplitude of aggregation plots and is expressed as a percentage light transmission (% T). The activity of the antagonists is expressed as IC50, that is to say the concentration of the substance which induces a 50% inhibition of the aggregation response induced by U46619.
Platelet Aggregation in Man
Venous blood is obtained from human volunteers who have not taken aspirin for at least 14 days prior to the experiment. The blood is withdrawn onto sodium citrate (0.109M) (1 vol. of citrate to 9 vol. of blood). Platelet-rich plasma (PRP) is obtained after centrifugation (20° C.) at 200 g for 10 minutes. The number of platelets is 250,000 PL/mm^3 on average. The PRP is stored at the temperature of the room until the time of the test, and is used within 2 hours following withdrawal from the subject. The antagonists are tested according to the procedure described in Example 22.
In the case of `O=C(O)CC/C=C\CC1(CNS(=O)(=O)c2ccc(Cl)cc2)CCCC1` [Example 6, (4Z) -8-[(4-Chlorophenyl)sulfonamido]-7,7-tetramethylene-4-octenoic acid sodium salt], the concentration for half-maximal inhibition (IC50) is 0.08 µM.
With `O=C(O)CC/C=C\CCC1(CCNS(=O)(=O)c2ccc(Cl)cc2)CCCC1` [Example 14, (4Z )-10-[(4-Chlorophenyl)sulfonamido]-8,8-tetramethylene-4-decenoic acid sodium salt], the IC50 worked out at 0.8 µM.
For `O=C(O)CCC/C=C\CC1(CNS(=O)(=O)c2ccc(Cl)cc2)CCCC1` [Example 8, (5Z )-9-[(4-Chlorophenyl)sulfonamido]-8,8-tetramethylene-5-nonenoic acid sodium salt], the IC50 worked out at 0.3 µM.
The same measure, in the same setting: under `O=C(O)CCC/C=C\CC1(CCNS(=O)(=O)c2ccc(Cl)cc2)CCCC1` [Example 12, (5Z)-10-[(4-Chlorophenyl)sulfonamido]-8,8-tetramethylene-5-decenoic acid sodium salt] stands 0.5 µM; under `O=C(O)CC/C=C\CC1(CNS(=O)(=O)c2ccc(Cl)cc2)CCCCC1` [Example 7, (4Z)-8-[(4-Chlorophenyl)sulfonamido]-7,7-pentamethylene-4-octenoic acid sodium salt], 0.3 µM; under `O=C(O)CC/C=C\CCC1(CNS(=O)(=O)c2ccc(Cl)cc2)CCCC1` [Example 9, (4Z)-9-[(4-Chlorophenyl)sulfonamido]-8,8-tetramethylene-4-nonenoic acid sodium salt], 0.2 µM.
The same measure, in the same setting: under `O=C(O)CC/C=C\CC1(CCNS(=O)(=O)c2ccc(Cl)cc2)CCCCC1` [Example 2, (4Z ) -9-[(4-Chlorophenyl)sulfonamido]-7 , 7-pentamethylene-4-nonenoic acid sodium salt] stands 0.2 µM.

The subject of the next assay is Dog platelets (aggregation induced by U46619+adrenaline). Nature of the assay: Platelet aggregation in dogs (U46619 + adrenaline, PRP). The settings on record: Canis lupus familiaris, adrenaline 10 μM then U46619 1.2 μM, 3 min preincubation, 37° C., read-out: IC50 (50% inhibition of the aggregation responses to U46619+adrenaline). The assay is classed as cell-based. As for the experimental part:
Platelet Aggregation in Dogs
After anesthesia of the animal with pentobarbital sodium (30 mg/kg i.v.), arterial blood is withdrawn onto sodium citrate (0.109M) (1 vol. of citrate per 9 vol. of blood). Platelet-rich plasma (PRP) is obtained after centrifugation (20° C.) at 200 g for 10 minutes. The number of platelets in the PRP is 300,000 PL/mm^3 on average. The PRP is stored at the temperature of the room until the time of the test, and is used within 4 hours following withdrawal from the animal.
Dog platelets respond weakly to U46619 alone. […] The PRP is incubated at 37° C. in the presence of the test antagonist for 3 minutes. Aggregation is then obtained by the addition of adrenaline (10 μM) followed by that of U46619 (1.2 μM) 30 seconds later. The effect of the antagonists is measured, and the IC50 is determined as the concentration of the antagonist needed to produce a 50% inhibition of the aggregation responses to U46619+adrenaline.
With `O=C(O)CCC/C=C\CC1(CCNS(=O)(=O)c2ccc(Cl)cc2)CCCC1` [Example 12, (5Z)-10-[(4-Chlorophenyl)sulfonamido]-8,8-tetramethylene-5-decenoic acid sodium salt], the concentration for half-maximal inhibition (IC50) amounted to 0.15 µM.
Regarding `O=C(O)CC/C=C\CC1(CCNS(=O)(=O)c2ccc(Cl)cc2)CCCCC1` [Example 2, (4Z ) -9-[(4-Chlorophenyl)sulfonamido]-7 , 7-pentamethylene-4-nonenoic acid sodium salt], the IC50 worked out at 0.12 µM.

In another assay the target is T1, guinea pig trachea (contractions caused by U46619) (Cavia porcellus, UniProt A0A286Y4I8).
T1 sequence (A0A286Y4I8 1-347): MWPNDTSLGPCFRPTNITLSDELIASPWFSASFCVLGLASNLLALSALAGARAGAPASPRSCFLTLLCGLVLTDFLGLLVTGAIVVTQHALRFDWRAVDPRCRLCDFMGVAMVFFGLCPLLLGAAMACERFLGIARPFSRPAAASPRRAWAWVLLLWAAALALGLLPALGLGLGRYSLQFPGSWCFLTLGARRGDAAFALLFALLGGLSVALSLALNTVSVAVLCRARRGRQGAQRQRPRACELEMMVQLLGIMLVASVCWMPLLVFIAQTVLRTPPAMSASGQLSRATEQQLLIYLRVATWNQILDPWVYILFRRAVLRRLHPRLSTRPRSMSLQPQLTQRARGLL
Nature of the assay: pA2 on guinea pig trachea (U46619-induced contraction). The class given is cell-based. The note with it: guinea pig tracheal rings; U46619 10^-9 M to 10^-5 M; antagonist contact 20 minutes.
`O=C(O)CC/C=C\CC1(CNS(=O)(=O)c2ccc(Cl)cc2)CCCC1` [Example 6, (4Z) -8-[(4-Chlorophenyl)sulfonamido]-7,7-tetramethylene-4-octenoic acid sodium salt] had a Kb of 0.000724 µM.
The same measure, in the same setting: the same measure for `O=C(O)CCC/C=C\CC1(CNS(=O)(=O)c2ccc(Cl)cc2)CCCC1` [Example 8, (5Z )-9-[(4-Chlorophenyl)sulfonamido]-8,8-tetramethylene-5-nonenoic acid sodium salt]: 0.000234 µM; for `O=C(O)CCC/C=C\CC1(CCNS(=O)(=O)c2ccc(Cl)cc2)CCCC1` [Example 12, (5Z)-10-[(4-Chlorophenyl)sulfonamido]-8,8-tetramethylene-5-decenoic acid sodium salt]: 0.00105 µM; for `O=C(O)CC/C=C\CC1(CNS(=O)(=O)c2ccc(Cl)cc2)CCCCC1` [Example 7, (4Z)-8-[(4-Chlorophenyl)sulfonamido]-7,7-pentamethylene-4-octenoic acid sodium salt]: 0.000398 µM.
Same read-out and setting: under `O=C(O)CC/C=C\CCC1(CNS(=O)(=O)c2ccc(Cl)cc2)CCCC1` [Example 9, (4Z)-9-[(4-Chlorophenyl)sulfonamido]-8,8-tetramethylene-4-nonenoic acid sodium salt] stands 0.000832 µM.
Compound `O=C(O)CC/C=C\CC1(CCNS(=O)(=O)c2ccc(Cl)cc2)CCCCC1` [Example 2, (4Z ) -9-[(4-Chlorophenyl)sulfonamido]-7 , 7-pentamethylene-4-nonenoic acid sodium salt] showed a Kb of 0.00398 µM.

A further assay has as its system platelets (aggregation induced by U46619, a TXA2 receptor agonist). Nature of the assay: Platelet aggregation in rabbits (U46619-induced, PRP). The note with it: Oryctolagus cuniculus, 0.05 h, rabbit PRP, U46619 1.2 μM, antagonist 3 min before agonist, 37° C., read-out: IC50 (50% inhibition of the aggregation response induced by U46619). The assay is classed as cell-based. As to the method: Platelet Aggregation in Rabbits
Rabbits (2-3 kg) are anesthetized with pentobarbital sodium (30 mg/kg i.v.). After cannulation of the left carotid artery, blood is withdrawn onto sodium citrate (0.109M) (1 vol. of citrate per 9 vol. of blood). Platelet-rich plasma (PRP) is obtained by centrifugation (20° C.) at 250 g for 20 minutes, and platelet-poor plasma (PPP) by centrifugation at 1000 g (10 min). The number of platelets (PL) in the PRP is adjusted to 300-350,000 PL/mm^3 by dilution with autologous PPP. The PRP is stored at the temperature of the room until the time of the test, and is used within 4 hours following withdrawal from the animal.
Platelet aggregation is carried out at 37° C. in siliconed glass tubes using an aggregometer. The PRP and the PL are stirred at 1000 rpm (revolutions per minute). In order to study the activity of thromboxane antagonists, the PRP is incubated for 1 min at 37° C., and the antagonist is then added for a period of 3 min before addition of the agonist U46619 (1.2 μM). The final volume in the measuring cell is then 250 μl. The intensity of platelet aggregation is established by taking the maximum amplitude of aggregation plots and is expressed as a percentage light transmission (% T). […]
As to `O=C(O)CC/C=C\CC1(CNS(=O)(=O)c2ccc(Cl)cc2)CCCC1` [Example 6, (4Z) -8-[(4-Chlorophenyl)sulfonamido]-7,7-tetramethylene-4-octenoic acid sodium salt], the IC50 stood at 0.2 µM.
`O=C(O)CC/C=C\CC1(CCNS(=O)(=O)c2ccc(Cl)cc2)CCCCC1` [Example 2, (4Z ) -9-[(4-Chlorophenyl)sulfonamido]-7 , 7-pentamethylene-4-nonenoic acid sodium salt]: the IC50 amounted to 0.2 µM.

In another assay the test system is tracheal pressure in guinea pigs (bronchoconstriction caused by U46619). The assay can be described thus: IC50 on tracheal pressure in guinea pigs (U46619-induced bronchoconstriction). The assay is classed as in vivo, guinea pig. The settings on record: Cavia porcellus, iv, 5 min; anesthetized guinea pigs; U46619 2 μg/kg i.v.; antagonist injected 5 minutes before U46619; read-out: IC50 (dose of antagonist that inhibits by 50% the increase in tracheal pressure caused by U46619). The text has this:
ICso on Tracheal Pressure in Guinea Pigs
Male albino guinea pigs (350-400 g) subjected to an 18-hour water diet are anesthetized with ethyl carbamate (1.25 g/kg i.p.). A catheter is introduced into the carotid artery in order to measure the arterial blood pressure by means of a pressure cell. A second catheter is introduced into the jugular vein and is used to inject the pharmacological substances. The trachea is cannulated and the guinea pig is placed in assisted respiration by means of a respirator. The animal's temperature is maintained at 37° C. using a thermostatic blanket. A needle pushed in the tracheal cannula is connected to a pressure cell and enables the tracheal pressure to be recorded.
The guinea pigs are pretreated with d-tubocurarine (1 mg/kg i.v.) and with indomethacin (10 mg/kg i.v.). When injected at a dose of 2 μg/kg i.v., U46619 causes a bronchoconstriction which leads to an increase in tracheal pressure and induces an increase in arterial blood pressure. The responses to U46619 are reversible and reproducible if the injections are carried out every 10 minutes.
The thromboxane receptor antagonists are injected 5 minutes before the injections of U46619. The dose of antagonist that inhibits by 50% the increase in tracheal pressure caused by U46619 is determined (IC50).
`O=C(O)CC/C=C\CC1(CNS(=O)(=O)c2ccc(Cl)cc2)CCCC1` [Example 6, (4Z) -8-[(4-Chlorophenyl)sulfonamido]-7,7-tetramethylene-4-octenoic acid sodium salt]: the ED50 turned out to be 0.021 mg/kg.
The same measure, in the same setting: under `O=C(O)CCC/C=C\CC1(CNS(=O)(=O)c2ccc(Cl)cc2)CCCC1` [Example 8, (5Z )-9-[(4-Chlorophenyl)sulfonamido]-8,8-tetramethylene-5-nonenoic acid sodium salt] stands 0.007 mg/kg; under `O=C(O)CCC/C=C\CC1(CCNS(=O)(=O)c2ccc(Cl)cc2)CCCC1` [Example 12, (5Z)-10-[(4-Chlorophenyl)sulfonamido]-8,8-tetramethylene-5-decenoic acid sodium salt], 0.009 mg/kg; under `O=C(O)CC/C=C\CC1(CNS(=O)(=O)c2ccc(Cl)cc2)CCCCC1` [Example 7, (4Z)-8-[(4-Chlorophenyl)sulfonamido]-7,7-pentamethylene-4-octenoic acid sodium salt], 0.02 mg/kg.
Turning to `O=C(O)CC/C=C\CCC1(CNS(=O)(=O)c2ccc(Cl)cc2)CCCC1` [Example 9, (4Z)-9-[(4-Chlorophenyl)sulfonamido]-8,8-tetramethylene-4-nonenoic acid sodium salt], the ED50 came out at 0.011 mg/kg.
On to `O=C(O)CC/C=C\CC1(CCNS(=O)(=O)c2ccc(Cl)cc2)CCCCC1` [Example 2, (4Z ) -9-[(4-Chlorophenyl)sulfonamido]-7 , 7-pentamethylene-4-nonenoic acid sodium salt], for which the ED50 turned out to be 0.12 mg/kg.
